Assay: Positron emission tomography of nasal deposition and retention of TAA after spraying the composition
Format: in vivo, human
Description: A dose of the composition can be delivered to a human patient by spraying the composition into each of the patient's nasal cavities. For dose delivery, the pre-compression metering pump (Valois VP7/100S) is placed in a patient's nostril and is then actuated by the patient, resulting in a spray into the nasal cavity. After initial priming, each actuation of the pump delivers from the nasal actuator about 100 mg of composition containing about 55 mcg of TAA. Each bottle of composition will provide at least about 120 metered doses. For the exemplified compositions, the recommended once-daily dosing for adults and children 12 years and older begins at about 220 mcgs of TAA, equivalent to two sprays in each nostril.
A composition comprising the formulation of Examples 1 and 2 was administered to two volunteer patients. Post administration, the patients were evaluated by positron emission tomography in order to determine 1) the amount of time it took for the maximum dose of the TAA medicament to be delivered to various regions of interest within the nasal cavity, and 2) the amount of TAA medicament deposited on the regions of interest over a two hour time period. For purposes of the evaluation, the volume of the head region was segmented into 104 distinct regions of interest. […] The results of evaluation indicate a rapid distribution of the TAA medicament to the target regions of the nose.
The evaluation included also a determination of the percentage of the TAA medicament remaining on the target sites two hours after the it was administered to each of the patients. This percentage was determined by dividing the amount remaining in each region of interest by the total amount remaining in the 104 regions of interest.

[1] = first volunteer, at maximum concha contact
[2] = first volunteer, over a two-hour period
[3] = first volunteer, two hours post administration, share of total remaining in 104 regions
[4] = other (second) volunteer, post dose
[5] = second volunteer, two hours post administration

CC1(C)O[C@@H]2C[C@H]3[C@@H]4CCC5=CC(=O)C=C[C@]5(C)[C@@]4(F)[C@@H](O)C[C@]3(C)[C@]2(C(=O)CO)O1 [TAA, triamcinolone acetonide]
dose directly deposited on the target sites (frontal cavity, frontal sinus, maxillary sinuses, superior and inferior concha) (both volunteers, amount in region divided by total amount remaining in the 104 regions of interest, two hours): greater than 85% | maximum amount of TAA medicament in contact with the frontal cavity region (first volunteer): about 41% | maximum amount of the dose deposited into the frontal sinus (first volunteer): approximately 3.5% | maximum amount of the dose deposited into the maxillary sinuses (first volunteer): ~3.9% | time to clearance of TAA medicament from the frontal sinus (first volunteer): ≤ 1 h | amount of total dose in contact with the inferior concha [1]: About 46% | amount of total dose in contact with the superior concha [1]: about 19% | amount of total dose remaining in the concha tissues (constant value) (first volunteer, final time period): 3.4-4% | maximum amount of TAA medicament in contact with the concha regions, % of total dose delivered to the nose (first volunteer, intranasal spray of formulation of Examples 1 and 2, PET): about 65% | dose deposited in the maxillary sinus region [2]: about 3% | dose deposited on the frontal sinus [2]: about 1.2% | time of maximum amount in contact with the concha regions (first volunteer, post dose): about 45 seconds | time of maximum amount in contact with the frontal cavity region (first volunteer, post dose): about 45 seconds | time of maximum deposit in the frontal and maxillary sinuses (first volunteer, post dose): ≤ 30 s | medicament still present in the maxillary sinuses (first volunteer, two hour acquisition sampling time): approximately 1% | total TAA medicament remaining deposited in the frontal cavity (first volunteer, two hours after administration, share of total remaining in 104 regions): about 47.9% | amount remaining in the concha region (inferior plus superior) (first volunteer, two hours post administration): about 36.4% | total medicament deposited in the inferior concha region [3]: about 27.8% | total medicament deposited in the superior concha region [3]: about 8.6% | amount in the frontal cavity region (constant level) (first volunteer, two hours post-dose): about 12% | sum of percentages remaining on the target sites (dose deposited directly onto target tissues) (first volunteer, two-hour serial sampling period): about 88.5% | maximum amount deposited in the frontal sinus (other (second) volunteer): around 3.5% | maximum amount deposited in the maxillary sinus (other (second) volunteer): about 2% | maximum amount of TAA medicament in contact with the frontal cavity, % of total dose delivered to the nose (other (second) volunteer): about 55% | part of the maximum concha amount associated with the inferior concha (other (second) volunteer): about 75% | part of the maximum concha amount associated with the superior concha (other (second) volunteer): about 25% | administered dose still in contact with the concha regions (other (second) volunteer, about two hours post-administration): 6-8% | dose still resident in the frontal/nasal cavity (other (second) volunteer, after two hours): approximately 22% | maximum amount of the drug in contact with the concha regions, % of total dose delivered to the nose (other (second) volunteer, intranasal spray of formulation of Examples 1 and 2, PET): about 53% | time of maximum amount in contact with the frontal cavity [4]: ≤ 30 s | time of maximum amount in contact with the inferior concha region [4]: about 3.5 minutes | time of maximum amount in contact with the superior concha region [4]: about 25 seconds | time of maximum deposit in the maxillary and frontal sinuses [4]: ≤ 30 s | sum of percentages remaining on the target sites (dose deposited directly onto target tissues) (second volunteer, two hour serial sampling period): about 85.6% | dose in the frontal sinus [5]: about 1.6% | dose in the maxillary sinus [5]: about 1.4% | dose remaining deposited on the inferior concha [5]: About 23.5% | dose remaining deposited on the superior concha [5]: about 6.9% | total percentage of the dose remaining deposited on the concha region [5]: about 30.4% | dose remaining deposited in the frontal cavity (second volunteer, two hours post-drug administration, share of total remaining in 104 regions): about 52.2%
